Twelve compounds from article PMC13114161 (Antibiotics, 2026) can be followed below.

Type in all cases: cell-based, Pseudomonas aeruginosa
For assay [1], the system named is P. aeruginosa ATCC 27853 ompH mutants EPIR32, EPIR36, EPIR38. Kind of assay: microbe, parasite or virus in culture. Particulars: Pseudomonas aeruginosa. The protocol: (§1) MIC assays for potentiation of antimicrobial activity against P. aeruginosa were performed as described previously.
For a further assay, the system named is P. aeruginosa ATCC 27853. Nature of the assay: MIC and levofloxacin potentiation (broth microdilution). Particulars: for LVX MIC (+EPI): levofloxacin MIC with EPI at […]. The protocol:
Once synthesized, the three fluorinated EPI analogs (TXA11114, TXA11164 and TXA12027) were first assayed for their antibacterial activities against P. aeruginosa ATCC 27853. They had MICs of 100, >200 and 100 µg/mL, respectively (Table 1). […] Particularly, the inactivity of TXA11164 was surprising as the pKa values of both the amines are similar to that in TXA11114.
as §1

For another assay, the system named is P. aeruginosa. Nature of the assay: MIC potentiation of antimicrobial agents by EPIs.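 On Fold difference of antibiotic MIC + TXA01182: TXA01182 tested at 6.25 µg/mL.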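 On Fold difference of antibiotic MIC + TXA09155: TXA09155 tested at 6.25 µg/mL.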 On Fold difference of antibiotic MIC + TXA11114: TXA11114 at 6.25 µg/mL.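 On MIC of antibiotic + TXA01182: TXA01182 tested at 6.25 µg/mL.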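 On MIC of antibiotic + TXA09155: TXA09155 tested at 6.25 µg/mL.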 On MIC of antibiotic + TXA11114: TXA11114 at 6.25 µg/mL. The conditions noted are these: for Fold difference of antibiotic MIC + TXA01182 / MIC of antibiotic + TXA01182: TXA01182 at […]; for Fold difference of antibiotic MIC + TXA09155 / MIC of antibiotic + TXA09155: TXA09155 at […]; for Fold difference of antibiotic MIC + TXA11114 / MIC of antibiotic + TXA11114: TXA11114 at […]. The protocol: In contrast, the activities of gentamicin and imipenem were unchanged in the presence of TXA11114 under the conditions tested. Although gentamicin can be transported by the MexXY efflux system, the absence of potentiation in this assay is not sufficient to draw conclusions regarding MexXY inhibition or overall efflux specificity.
as §1

For assay [2], the system named is multidrug-resistant P. aeruginosa clinical isolates from the CDC-FDA. Nature of the assay: Levofloxacin MIC potentiation, CDC-FDA isolates. Particulars: for Levofloxacin MIC fold difference, +EPI / Levofloxacin MIC, +EPI: EPI […] (TXA11114, TXA09155) or 50 μg/mL (MC-04,124, PAβN); for Share of CDC isolates with levofloxacin MIC reduced ≥8-fold (potentiated): TXA11114 […], PAβN and MC-04,124 50 µg/mL. The protocol:
In a comparative study, the levofloxacin-potentiating activity of TXA11114 was evaluated alongside the well-characterized EPIs PAβN and MC-04,124 using P. aeruginosa clinical isolates obtained from the CDC and FDA Antimicrobial Resistance Isolate Bank and the Walter Reed Army Institute of Research (WRAIR). […] While PAβN has been widely studied in laboratory strains, its activity against the CDC/FDA P. aeruginosa panel has been reported only sparingly, limiting direct cross-study comparisons.
as §1

[3] abbreviates: Pseudomonas aeruginosa, ATCC27853, ATCC 27853 parent strain (Table S1), read-out: MIC.
[4] abbreviates: Pseudomonas aeruginosa, ATCC27853, EPI alone, ATCC 27853, read-out: EPI MIC.

Read-outs that look alike come from different tables or passages of the source. Peptide text beside a SMILES is read from it. * marks the point of attachment. βNA = c1ccc2cc(N*)ccc2c1

Regarding `NCC[C@H](O)C(=O)N[C@@H]1C[C@H](N)[C@@H](O[C@H]2O[C@H](CN)[C@@H](O)[C@H](O)[C@H]2O)[C@H](O)[C@H]1O[C@H]1O[C@H](CO)[C@@H](O)[C@H](N)[C@H]1O` [AMK, amikacin], the MIC in assay [1] (ATCC27853, EPIR32) came to 2 µg/mL; in assay [1] (ATCC27853, EPIR36) it was 1 µg/mL; in assay [1] (ATCC27853, EPIR38), 4 µg/mL; with P. aeruginosa ATCC 27853 (setting [3]) it was 8 µg/mL.

`CC[C@H]1OC(=O)[C@H](C)[C@@H](O[C@H]2C[C@@](C)(OC)[C@@H](O)[C@H](C)O2)[C@H](C)[C@@H](O[C@@H]2O[C@H](C)C[C@H](N(C)C)[C@H]2O)[C@](C)(O)C[C@@H](C)CN(C)[C@H](C)[C@@H](O)[C@]1(C)O` [AZM, azithromycin]: the MIC is 32 µg/mL in assay [1] (ATCC27853, EPIR32); 16 µg/mL in assay [1] (ATCC27853, EPIR36); 64 µg/mL in assay [1] (ATCC27853, EPIR38); 64 µg/mL with P. aeruginosa ATCC 27853 (ATCC 27853 parent strain (Table S1)).

With `C[C@H]1[C@H](NC(=O)/C(=N\OC(C)(C)C(=O)O)c2csc(N)n2)C(=O)N1S(=O)(=O)O` [Aztreonam], in the assay on P. aeruginosa, the “Fold difference of antibiotic MIC + TXA01182” value was found to be 4 fold, the “MIC of antibiotic + TXA01182” value is 2 µg/mL, the “Fold difference of antibiotic MIC + TXA09155” value is recorded as 4 fold and the “MIC of antibiotic + TXA09155” value worked out at 2 µg/mL. Also, in the assay with P. aeruginosa, the “Fold difference of antibiotic MIC + TXA11114” value was found to be 2 fold.

Consider `CO/N=C(\C(=O)N[C@@H]1C(=O)N2C(C(=O)[O-])=C(C[n+]3cccc4c3CCC4)CS[C@H]12)c1csc(N)n1` [Cefpirome], for which, in the assay with P. aeruginosa, the “Fold difference of antibiotic MIC + TXA01182” value is given as 2 fold, the “Fold difference of antibiotic MIC + TXA09155” value was 8 fold, the “MIC of antibiotic + TXA09155” value was determined as 1 µg/mL and the “Fold difference of antibiotic MIC + TXA11114” value is 4 fold. Besides, the “MIC of antibiotic + TXA11114” value in the assay with P. aeruginosa came to 2 µg/mL.

As for `Nc1nc(/C(=N/O)C(=O)N[C@@H]2C(=O)N3C(C(=O)O)=C(/C=C4\CCN([C@@H]5CCNC5)C4=O)CS[C@H]23)ns1` [Ceftobiprole], in the assay on P. aeruginosa, the “Fold difference of antibiotic MIC + TXA01182” value worked out at 1 fold, the “MIC of antibiotic + TXA01182” value turned out to be 8 µg/mL, the “Fold difference of antibiotic MIC + TXA09155” value is given as 8 fold and the “MIC of antibiotic + TXA09155” value is 1 µg/mL. In the assay with P. aeruginosa, the “Fold difference of antibiotic MIC + TXA11114” value was 4 fold and the “MIC of antibiotic + TXA11114” value is 2 µg/mL.

For `C[C@H]1c2cccc(O)c2C(=O)C2=C(O)[C@]3(O)C(=O)C(C(N)=O)=C(O)[C@@H](N(C)C)[C@@H]3[C@@H](O)[C@@H]21` [Doxycycline, doxycycline], in the assay with P. aeruginosa, the “MIC of antibiotic + TXA01182” value is 2 µg/mL, the “MIC of antibiotic + TXA09155” value turned out to be 1 µg/mL and the “MIC of antibiotic + TXA11114” value was 4 µg/mL. The MIC in the assay with P. aeruginosa ATCC 27853 (setting [3]) is 32 µg/mL.

Regarding `CNC(C)C1CCC(N)C(OC2C(N)CC(N)C(OC3OCC(C)(O)C(NC)C3O)C2O)O1` (stereo not drawn) [Gentamicin], in the assay with P. aeruginosa, the “Fold difference of antibiotic MIC + TXA01182” value is 1 fold, the “MIC of antibiotic + TXA01182” value came to 2 µg/mL, the “Fold difference of antibiotic MIC + TXA09155” value was 1 fold and the “MIC of antibiotic + TXA09155” value was found to be 2 µg/mL. For the same compound, in the assay with P. aeruginosa, the “Fold difference of antibiotic MIC + TXA11114” value is 1 fold and the “MIC of antibiotic + TXA11114” value worked out at 2 µg/mL. For the same compound, in the assay on P. aeruginosa (listed as gentamicin), the “Fold difference of antibiotic MIC + TXA11114” value is listed as “unchanged”.

For `NCC1CNC(C(=O)NC(CCc2ccccc2)C(=O)Nc2ccc3ncccc3c2)C1` (stereo not drawn) [MC-04,124], the “Levofloxacin MIC fold difference, +EPI” value in assay [2] (AR-0229) worked out at 1 fold; in assay [2] (AR-0232), 1 fold; in assay [2] (AR-0233) it was 1 fold; in assay [2] (AR-0234), 1 fold; in assay [2] (AR-0239), 1 fold; in assay [2] (AR-0242), 2 fold. Further, the “Levofloxacin MIC fold difference, +EPI” value in assay [2] (AR-0244), in assay [2] (AR-0246), in assay [2] (AR-0248), in assay [2] (AR-0249), in assay [2] (AR-0252) and in assay [2] (AR-0253) was 1 fold each time. For the same compound, in assay [2] (AR-0264), the “Levofloxacin MIC fold difference, +EPI” value amounted to 1 fold. In addition, the “Levofloxacin MIC, +EPI” value in assay [2] (AR-0229) is 64 µg/mL; in assay [2] (AR-0232), 8 µg/mL; in assay [2] (AR-0233), 4 µg/mL; in assay [2] (AR-0234) it was 8 µg/mL; in assay [2] (AR-0239), 64 µg/mL; in assay [2] (AR-0242), 4 µg/mL. The “Levofloxacin MIC, +EPI” value was determined as 64 µg/mL in assay [2] (AR-0246); 16 µg/mL in assay [2] (AR-0248); 64 µg/mL in assay [2] (AR-0249); 32 µg/mL in assay [2] (AR-0252); 2 µg/mL in assay [2] (AR-0253); 64 µg/mL in assay [2] (AR-0264). The “Share of CDC isolates with levofloxacin MIC reduced ≥8-fold (potentiated)” value in assay [2] is given as “minimal MIC shifts”.

Consider `NC(N)=NCCC[C@H](NC(=O)[C@@H](N)Cc1ccccc1)C(=O)Nc1ccc2ccccc2c1` [PAβN, phenylalanine-arginine β-naphthylamide] (H-Phe-Arg-βNA), for which the “Levofloxacin MIC fold difference, +EPI” value in assay [2] (AR-0229) is 1 fold; in assay [2] (AR-0232), 16 fold; in assay [2] (AR-0233) it was 1 fold; in assay [2] (AR-0234), 16 fold; in assay [2] (AR-0239) it was 8, (8) fold; in assay [2] (AR-0244) it was 1 fold. Also, the “Levofloxacin MIC fold difference, +EPI” value in assay [2] (AR-0246) was 1 fold; in assay [2] (AR-0248), 1 fold; in assay [2] (AR-0249), 8, (8) fold; in assay [2] (AR-0252), 32 fold; in assay [2] (AR-0253) it was 64 fold; in assay [2] (AR-0264) it was 1 fold. Besides, the “Levofloxacin MIC, +EPI” value in assay [2] (AR-0229) was 64 µg/mL; in assay [2] (AR-0232), 0.5 µg/mL; in assay [2] (AR-0233), 4 µg/mL; in assay [2] (AR-0234), 0.5 µg/mL; in assay [2] (AR-0239), 8, (8) μg/mL; in assay [2] (AR-0242), 0.5 µg/mL. In addition, the “Levofloxacin MIC, +EPI” value in assay [2] (AR-0246) is 64 µg/mL; in assay [2] (AR-0248), 16 µg/mL; in assay [2] (AR-0249), 8, (8) μg/mL; in assay [2] (AR-0252) it was 1 µg/mL; in assay [2] (AR-0253), 0.031 µg/mL; in assay [2] (AR-0264) it was 64 µg/mL. Also, the “Share of CDC isolates with levofloxacin MIC reduced ≥8-fold (potentiated)” value in assay [2] was ~ 54%.

Regarding `NCCC(F)[C@@H](N)CNC(=O)c1cc2ccc(-c3ccc(F)cc3)cc2[nH]1` (stereo partly drawn) [TXA11164, N-((2S)-2,5-diamino-3-fluoropentyl)-6-(4-fluorophenyl)-1H-indole-2-carboxamide], the “EPI MIC” value with P. aeruginosa ATCC 27853 (EPI alone, ATCC 27853) is above 200 µg/mL. In addition, in the assay with P. aeruginosa ATCC 27853 (EPI at […], ATCC 27853, listed as TXA11167), the “Fold MIC reduction [LVX/EPI-LVX]” value is “lacked potentiation activity”. The MIC with P. aeruginosa ATCC 27853 (setting [4]) is above 200 µg/mL. Moreover, the LVX MIC (+EPI) in the assay with P. aeruginosa ATCC 27853 (ATCC 27853) amounted to 1 µg/mL.

In the case of `NCC(F)(F)C[C@@H](N)CNC(=O)c1cc2ccc(-c3ccc(F)cc3)cc2[nH]1` [TXA12027, (R)-N-(2,5-diamino-4,4-difluoropentyl)-6-(4-fluorophenyl)-1H-indole-2-carboxamide], the MIC in the assay with P. aeruginosa ATCC 27853 (setting [4]) turned out to be 100 µg/mL. Also, the LVX MIC (+EPI) in the assay on P. aeruginosa ATCC 27853 (ATCC 27853) was found to be 1 µg/mL.

Cotrimoxazole: in the assay on P. aeruginosa, the “MIC of antibiotic, No EPI” value came to 256 µg/mL; the “Fold difference of antibiotic MIC + TXA01182” value is recorded as 16, (>16) fold; the “MIC of antibiotic + TXA01182” value is recorded as 16, (>16) μg/mL; the “Fold difference of antibiotic MIC + TXA09155” value was found to be 32 fold. For the same compound, in the assay with P. aeruginosa, the “MIC of antibiotic + TXA09155” value was determined as 8 µg/mL, the “Fold difference of antibiotic MIC + TXA11114” value worked out at 8 fold and the “MIC of antibiotic + TXA11114” value was determined as 32 µg/mL.
